Results on eight molecules are retold here after PubChem BioAssay (NCI).

Where “and” joins values, the source holds several entries; their conditions need not be identical. Identical values can stand only once.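 Interpolation was linear, between the two tested concentrations surrounding the appropriate level; five concentrations were tested over 48 hours in 96-well plates. At the GI50, growth is halved. TGI marks complete inhibition of growth.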 Some results are limits rather than exact numbers.

Holding throughout (assay): NCI tumour cell line growth inhibition, 48 h
Test [1] deals with ACHN renal.
Test [2] relates to HT29 colon.
The test system of test [3] is LOX IMVI melanoma.
The subject of test [4] is MOLT-4 leukemia.
Test [5] deals with NCI/ADR-RES ovarian.
Test [6] has as its system PC-3 prostate.
Test [7] has as its system SNB-19 CNS.
Test [8] deals with SNB-75 CNS.
The test system of test [9] is T-47D breast.
Test [10] has as its system UACC-257 melanoma.

In the case of `N=C(N)CCCCCCCCC(=N)N`, the GI50 was > 100 µM in test [1]; 26.3 µM in [2]; 31.8 µM in test [3]; 46.4 µM in [4]; 14.8 µM in [5]; 37 µM in [6]. Moreover, the GI50 was 22.5 µM in test [7], 29.1 µM in test [8], 25 µM in test [9] and > 100 µM in test [10]. For the same molecule, the TGI in test [1], in test [2], in test [3], in [4], in test [5] and in test [6] was > 100 µM throughout. In addition, the TGI in [7], in test [8], in test [9] and in test [10] was > 100 µM each time.

In the case of `COC(=O)/C(=C\c1c(C)[nH]c2ccccc12)S(=O)(=O)c1ccccc1`, the GI50 in test [1] was 5.52 µM; in test [2], 5.23 µM; in [3], 1.99 µM; in test [4], 1.9 µM; in [5] it was 4.19 µM; in [6] it was 5.54 µM. The GI50 in test [7] was 7.59 µM; in test [8] it was 3.08 µM; in test [9], 3.21 µM; in [10] it was 6.97 µM. Moreover, the TGI in [1] is 18.5 µM; in test [2], > 100 µM; in [3] it was 5.18 µM; in test [4] it was > 100 µM; in test [5] it was 67.7 µM; in [6], > 100 µM. The TGI amounted to 22.1 µM in [7], 14.6 µM in test [8], 16.6 µM in test [9] and 20.9 µM in [10].

As to `CC[N+](CC)(CC)CCCn1c2c(c3ccccc3c1=O)C(=O)c1ccccc1-2`, the GI50 in [1] is 3.07 µM; in test [2], 6.3 µM; in [3], 4.63 µM; in test [4] it was 5.58 µM; in [5], 6.5 µM; in [6], 9.13 µM. Besides, the GI50 in test [7] is 31.6 µM; in [8], 80 µM; in test [9], 98.1 µM; in test [10] it was 12.3 µM. Also, the TGI in test [1] is 26.8 µM; in [2], > 100 µM; in [3], > 100 µM; in test [4] it was > 100 µM; in [5], 27.2 µM; in test [6], 69.1 µM. Further, the TGI in test [7] was > 100 µM; in [8], > 100 µM; in [9], > 100 µM; in [10], 36.3 µM.

Consider `O=C(Nc1ncc(Cc2ccccc2Cl)s1)c1ccc2c(c1)OCCO2`, for which the GI50 in test [1] was 0.776 µM; in [2] it was 0.616 µM; in test [3], 0.583 µM; in test [4], 0.581 µM; in [5], 0.322 µM; in [6] it was 0.417 µM. Also, the GI50 was 0.548 µM in test [7], 0.262 µM in test [8], 0.333 µM in [9] and 6.27 µM in test [10]. Moreover, the TGI in [1] is > 65.1 µM; in test [2], > 48.5 µM; in test [3], > 100 µM; in test [4] it was > 100 µM; in [5], 22.2 µM; in test [6] it was > 100 µM. The TGI in [7] is > 45.5 µM; in test [8], 6.55 µM; in test [9] it was > 100 µM; in test [10], > 82.1 µM.

Regarding `OCCCCC#Cc1ccccc1C#Cc1ccccc1C(F)(F)F`, the GI50 in [1] is 11.4 µM; in test [2], 4.01 µM; in [3], 4.99 µM; in test [4] it was 2.63 µM; in test [5] it was 4.2 µM; in [6], 8.77 µM. The GI50 is 18 µM in [7], 18.7 µM in [8], 19.8 µM in [9] and 17.7 µM in test [10]. The TGI was found to be 23.5 µM in [1]; 16.5 µM in [2]; 18.5 µM in test [3]; 12.9 µM in test [4]; 16.2 µM in test [5]; 21 µM in test [6]. Also, the TGI in test [7] was found to be 34.3 µM; in test [8], 35.9 µM; in test [9], 47.2 µM; in [10], 31.9 µM.

For the molecule `COc1c(O)ccc2c1CN1CCc3cc4c(cc3C1C2)OCO4` (centres undefined), the TGI in test [1] was > 79 µM; in test [2], > 100 µM; in [3] it was > 77.8 µM; in test [4], > 100 µM; in test [5], 90.2 µM; in [6] it was > 100 µM. Further, the TGI in [7] is > 100 µM; in [8], 65.3 µM; in test [9], > 73.9 µM; in [10], > 77.2 µM.

Regarding `CNC(=O)c1cccc(-c2ccc3c(N4CCOC[C@@H]4C)nc(N4CCOC[C@@H]4C)nc3n2)c1`, the GI50 in test [1] is 0.095 µM and 0.115 µM and 0.119 µM; in [2], 0.144 µM and 0.355 µM and 0.323 µM; in test [3], 0.113 µM and 0.217 µM and 0.228 µM; in test [4], 0.101 µM and 0.146 µM and 0.214 µM; in test [5], 0.24 µM and 0.412 µM and 0.371 µM; in test [6], 0.0219 µM and 0.0809 µM and 0.0384 µM. The GI50 in test [7] was 0.448 µM and 0.29 µM; in test [8], 0.027 µM and 0.117 µM and 0.0316 µM; in test [9], 0.0168 µM and 0.0287 µM and 0.0186 µM; in test [10] it was 0.0518 µM and 0.188 µM and 0.0589 µM. For the same molecule, the TGI was > 100 µM in [1]; > 100 µM in test [2]; 5.24 µM and > 4.47 µM and > 43.9 µM in test [3]; 28.9 µM and > 10 µM and > 44.4 µM in test [4]; 3.56 µM and 5.12 µM and > 25.1 µM in [5]; > 93.3 µM in test [7]. Besides, the TGI was 0.373 µM and 0.647 µM and 0.403 µM in test [8]; 0.246 µM and 0.212 µM and 0.103 µM in test [9]; 1.21 µM and 1.69 µM and 0.487 µM in test [10].

With `CC(NNC(=S)N1CCCCCC1)c1ccc2ccccc2n1` (centres undefined), the GI50 is 0.66 µM in [1]; 2.54 µM in [2]; 2.56 µM in test [3]; 2.18 µM in test [4]; 2.29 µM in test [5]; 2.07 µM in test [6]. Moreover, the GI50 in test [7] is 4.16 µM; in test [8] it was 12.5 µM; in test [9], 1.91 µM; in [10], 1.74 µM. Moreover, the TGI is 14.6 µM in test [1]; 31.1 µM in test [2]; 15.5 µM in test [3]; > 55.5 µM in test [4]; > 100 µM in test [5]; > 63 µM in test [6]. The TGI in test [7] is > 100 µM; in test [8], 27.5 µM; in test [9], 28.7 µM; in [10], 17 µM.
